Key:
[1] = target: T1, Keap1 (Homo sapiens, UniProt Q14145); assay: FCS displacement of TAMRA-Nrf2 ETGE peptide from purified GST-Keap1-DGR; supported by co-IP; format: binding
T1 construct: GST-Keap1-DGR, residues 315–598 (DGR domain)

[2] = target: Nrf2 8mer peptide (Homo sapiens); assay: SPR; conditions: cited from earlier work
[3] = target: Nrf2 9mer peptide, FITC-labeled (Homo sapiens) (UniProt Q16236); assay: FP; conditions: cited from earlier work
Sequence of Nrf2 9mer peptide, FITC-labeled (Homo sapiens) (Q16236 whole entry): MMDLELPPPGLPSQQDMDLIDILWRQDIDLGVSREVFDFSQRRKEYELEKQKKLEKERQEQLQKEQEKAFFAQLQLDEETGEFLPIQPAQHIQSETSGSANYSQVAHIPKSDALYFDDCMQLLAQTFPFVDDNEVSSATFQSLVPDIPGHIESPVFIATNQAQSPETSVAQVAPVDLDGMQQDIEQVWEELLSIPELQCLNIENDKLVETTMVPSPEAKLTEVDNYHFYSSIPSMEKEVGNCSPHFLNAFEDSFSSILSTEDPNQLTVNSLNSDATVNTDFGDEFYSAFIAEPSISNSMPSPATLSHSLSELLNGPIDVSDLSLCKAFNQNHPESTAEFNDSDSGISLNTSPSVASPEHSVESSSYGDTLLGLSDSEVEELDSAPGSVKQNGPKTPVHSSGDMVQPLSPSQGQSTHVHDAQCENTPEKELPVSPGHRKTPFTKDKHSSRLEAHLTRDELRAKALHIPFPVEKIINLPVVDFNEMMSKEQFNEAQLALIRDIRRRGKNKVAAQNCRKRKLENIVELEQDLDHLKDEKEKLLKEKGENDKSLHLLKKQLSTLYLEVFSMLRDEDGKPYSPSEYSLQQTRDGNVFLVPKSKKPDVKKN

Sequence of Keap1 (from UniProt Q14145) (Q14145 whole entry): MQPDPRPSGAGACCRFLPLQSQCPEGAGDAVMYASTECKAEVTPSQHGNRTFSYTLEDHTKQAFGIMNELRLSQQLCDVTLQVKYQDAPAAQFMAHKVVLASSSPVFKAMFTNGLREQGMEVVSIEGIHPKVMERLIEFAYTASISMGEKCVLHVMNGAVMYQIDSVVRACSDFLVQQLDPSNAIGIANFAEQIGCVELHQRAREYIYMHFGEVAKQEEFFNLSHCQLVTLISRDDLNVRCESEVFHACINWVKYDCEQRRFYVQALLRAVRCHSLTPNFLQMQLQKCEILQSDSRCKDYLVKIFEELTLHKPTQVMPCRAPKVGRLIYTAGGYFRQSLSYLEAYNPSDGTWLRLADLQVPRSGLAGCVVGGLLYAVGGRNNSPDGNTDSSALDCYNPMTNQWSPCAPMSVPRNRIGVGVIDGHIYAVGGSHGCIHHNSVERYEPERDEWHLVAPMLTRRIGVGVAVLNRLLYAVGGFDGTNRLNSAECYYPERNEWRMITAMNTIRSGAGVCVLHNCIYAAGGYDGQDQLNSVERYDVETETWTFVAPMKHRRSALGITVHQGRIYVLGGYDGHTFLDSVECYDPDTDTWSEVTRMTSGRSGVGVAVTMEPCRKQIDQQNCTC
T1 sequence (Q14145 315-598): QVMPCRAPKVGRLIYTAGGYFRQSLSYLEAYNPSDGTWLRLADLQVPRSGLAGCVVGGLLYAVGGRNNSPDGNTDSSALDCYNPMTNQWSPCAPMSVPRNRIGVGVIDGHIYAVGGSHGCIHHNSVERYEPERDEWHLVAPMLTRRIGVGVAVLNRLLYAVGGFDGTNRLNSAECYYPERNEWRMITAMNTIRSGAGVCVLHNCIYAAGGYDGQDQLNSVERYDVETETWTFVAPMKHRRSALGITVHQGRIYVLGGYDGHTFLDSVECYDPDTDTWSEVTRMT

Row | Molecule | IC50 [1] [µM] | Kd [2] [µM] | Kd [3] [µM]
1 | O=C1C=Cc2cc(Br)ccc2C1=O [bonaphton, 6-bromo-1,2-naphthoquinone] | 37.9 |  | 
2 | Keap1 (from UniProt Q14145) |  | > 1 | 0.0651
3 | chlorophyllin sodium copper salt | 35.7 |  | 

Source: PMC5479848, “Drug-Repositioning Screening for Keap1-Nrf2 Binding Inhibitors using Fluorescence Correlation Spectroscopy” (Scientific Reports, 2017)
